Earlier results in patent US20190161439A1, “MARINE SESSILE ORGANISM-REPELLING COMPOSITION” (BASSERU CHEMICAL CO., LTD., priority 2015, published 2019).

Tested on: Barnacle
Details: reported values

concentration corresponding to the 50% adhesion inhibition rate to Barnacle (EC50) [µg/mL] | SMILES
0.0084 | CC(=O)O[C@H]1CC[C@](C)(C#N)CC1 [AF-034]
0.03 | [C-]#[N+]C(C)(C)CCCCCCCCC=C [AF-035]
